Data as given in patent publication US6376512B1, “Therapeutic uses of quinoline derivatives” (Aventis Pharma Deutschland GmbH, priority 1997, dated 2002).
Entries after “also recorded” stand apart in the source; their conditions may differ. Like-named read-outs stand apart in the source and are kept apart here.

Tests used:
[1] = system: human preadipocytes; test: Adipocyte differentiation of primary human pre-adipocyte cultures (oil red-O); format: cell-based; conditions: for EC50: Homo sapiens, Adipocyte, human adipocyte differentiation in presence of insulin and dexamethasone
Description: Evaluation of the capacity to induce differentiation of primary human pre-adipocyte cultures to adipocytes.
The capacity of Compound VI to induce adipocyte differentiation of primary human pre-adipocyte cultures was evaluated and compared directly to Troglitazone®.
Human subcutaneous preadipocytes were isolated from adipose tissue obtained by liposuction surgery. Preadipocytes were inoculated at high density in preadipocyte medium (DME/F-10, 1:1, (v/v) containing 10% fetal calf serum). Cells were kept in preadipocytic medium overnight for attachment. […] The basal medium, which was used as the negative control, contained DME/F-10, biotin (33 μM), pantothenate (17 μM), insulin (100 nM), and dexamethasone (1 μM). The culture was maintained for 14 days with the compound treatment during the first five days. At the end of the culture, cells were fixed in 5% formalin and stained with oil red-O dye. The dye was extracted by isopropanol and quantitated by measuring the optical density at 500 nm.

[2] = molecular target: T1, LTD4 receptor (Homo sapiens, UniProt Q9Y271); test: LTD4 receptor binding in THP-1 cells; conditions: for Kb: THP-1 cells, read-out: LTD4 Binding (Kb for binding of compound to the LTD4 receptor)
T1 construct: endogenous in cells
T1 sequence (Q9Y271 1-337): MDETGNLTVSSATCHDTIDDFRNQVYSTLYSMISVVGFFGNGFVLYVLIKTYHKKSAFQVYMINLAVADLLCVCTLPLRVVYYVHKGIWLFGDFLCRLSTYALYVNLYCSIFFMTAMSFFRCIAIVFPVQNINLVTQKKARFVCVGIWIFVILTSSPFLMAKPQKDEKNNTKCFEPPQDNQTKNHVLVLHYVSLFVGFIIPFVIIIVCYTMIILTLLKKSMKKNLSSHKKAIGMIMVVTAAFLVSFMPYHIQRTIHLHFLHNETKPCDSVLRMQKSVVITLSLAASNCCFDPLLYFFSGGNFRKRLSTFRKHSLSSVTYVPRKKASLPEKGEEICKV

[3] = molecular target: T2, LTD4 receptor (Cavia porcellus, UniProt Q2NNR5); test: LTD4 binding, guinea pig receptor; conditions: read-out: Kd, antagonist of the guinea pig LTD4 receptor
T2 sequence (Q2NNR5 1-340): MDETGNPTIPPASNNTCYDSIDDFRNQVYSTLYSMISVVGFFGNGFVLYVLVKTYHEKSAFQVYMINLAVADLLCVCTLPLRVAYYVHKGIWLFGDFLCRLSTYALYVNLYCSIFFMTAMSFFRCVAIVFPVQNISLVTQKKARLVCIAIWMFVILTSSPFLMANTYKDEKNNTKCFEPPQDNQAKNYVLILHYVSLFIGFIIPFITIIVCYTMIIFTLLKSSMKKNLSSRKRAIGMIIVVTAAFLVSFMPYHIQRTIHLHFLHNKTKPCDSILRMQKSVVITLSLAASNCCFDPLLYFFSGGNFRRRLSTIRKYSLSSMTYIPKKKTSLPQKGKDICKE

[4] = system: db/db mice; test: Oral (in-feed) efficacy in db/db mice, genetic model of type II diabetes; format: in vivo, mouse
Description: An in-feed study in this genetic model of type II diabetes was performed. […] The compound of formula VI and Troglitazone® were studied in a genetic model of diabetes (db/db mice). A total of 70 female db/db mice (C57Bl/Ks db+/+; Jackson Labs, Maine), 3 months of age, received either meal chow only (rodent chow # 5001), 50 or 150 mg/kg/day of the compound of formula VI and 50 or 150 mg/kg/day of Troglitazone® mixed with the food. Six animals were sacrificed on Day 0 to obtain baseline values, the remaining 64 animals were randomly distributed into 5 groups. On days 0, 8, 12 and 16 whole blood samples were taken via the tail vein and blood glucose was determined (in duplicate) using the One Touch® gluco-meter. On Day 16, animals were anesthetized using pentobarbital, blood was drawn into EDTA tubes and the following organs were removed: heart, liver, brain, white and brown adipose tissue and the tibia. Plasma was prepared and kept frozen until samples were analyzed for glucose, free fatty acids, insulin and triglycerides. [table] Plasma was analyzed for glucose, triglycerides, free fatty acids and insulin. The latter two methods were slightly modified to use smaller amounts of plasma. Glucose Analysis. Plasma glucose was measured with a Sigma Chemicals Diagnostic kit (#315-500). Triglyceride Analysis. Plasma triglycerides was measured with a Sigma Chemicals Diagnostic kit (#339-500P). Insulin Analysis. Plasma insulin was measured using a radioimmunoassay (RIA) kit from Linco Research Inc. (#RI-13K). This kit was modified slightly using 10 μl of plasma. This kit utilizes an antibody made specifically against rat insulin. The cross-reactivity of this antibody with mouse insulin is 100 percent. Free Fatty Acid Analysis. Plasma free fatty acids were measured using a kit obtained from Wako Chemicals Inc. (NEFA-C; #994-75409). This kit utilizes an in vitro enzymatic colorimetric method for the quantitation of non-esterified fatty acids in serum or plasma. This method relies upon the acylation of coenzyme A by the fatty acids in the presence of added acyl-CoA synthetase. This method was modified slightly to utilize 5 μl of plasma and was performed in a 96-well format (M. Johnson & J. Peters, J. Animal Science 71:753-756, 1993).

[5] = molecular target: T3, PPAR-γ (Homo sapiens, UniProt P37231); test: PPAR-γ ligand receptor binding; conditions: initial results
T3 sequence (P37231 1-505): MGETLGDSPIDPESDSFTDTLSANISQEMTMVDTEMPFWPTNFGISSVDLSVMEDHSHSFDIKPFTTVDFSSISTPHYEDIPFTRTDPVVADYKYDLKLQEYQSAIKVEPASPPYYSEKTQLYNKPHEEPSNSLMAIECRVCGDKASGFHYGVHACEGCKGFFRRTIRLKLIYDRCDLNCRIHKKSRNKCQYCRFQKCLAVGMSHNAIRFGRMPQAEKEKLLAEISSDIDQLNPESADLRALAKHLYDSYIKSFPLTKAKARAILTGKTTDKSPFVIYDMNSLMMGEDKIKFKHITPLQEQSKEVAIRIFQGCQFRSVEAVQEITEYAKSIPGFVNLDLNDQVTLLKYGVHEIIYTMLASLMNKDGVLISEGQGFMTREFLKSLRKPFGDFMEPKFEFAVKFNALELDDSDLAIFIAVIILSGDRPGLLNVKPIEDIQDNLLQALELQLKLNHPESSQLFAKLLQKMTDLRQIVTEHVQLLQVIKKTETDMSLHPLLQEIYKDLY

Q: Which melting point does the source give for `c1ccc2nc(COc3ccc(COc4ccc(Cc5nnn[nH]5)cc4)cc3)ccc2c1` [Example 12, 5-[4(4-(2-quinolinylmethyloxy)benzyloxy)benzyl]tetrazole] here?
A: 179 to 181 °C

Q: Which melting point does the source give for `COc1cc(C(=O)O)ccc1OCc1cccc(OCc2ccc3ccccc3n2)c1` [Example 15, 3-methoxy-4-(3-(2-quinolinylmethyloxy)benzyloxy)benzoic acid] here?
A: 188 to 190 °C

Q: For `COC(=O)c1ccc(OCc2cccc(OCc3ccc4ccccc4n3)c2)c(OC)c1` [Example 14, methyl 3-methoxy-4-(3-(2quinolinylmethyloxy)benzyloxy)-benzoate], which melting point is on record?
A: 100 to 101 °C

Q: For `N#Cc1cccc(OCc2cccc(OCc3ccc4ccccc4n3)c2)c1` [Example 7, 3-[3-(2-quinolinylmethyloxy)benzyloxy]benzonitrile], which melting point is on record?
A: 86 to 87 °C

Q: For `O=C(O)c1cccc(COc2cccc(OCc3ccc4ccccc4n3)c2)c1` [Example 20, 3-(3-(2-quinolinylmethyloxy)phenoxymethyl)benzoic acid], which melting point is on record?
A: 149 to 151 °C

Q: Which melting point does the source give for `N#Cc1ccc(COc2cccc(OCc3ccc4ccccc4n3)c2)cc1` [Example 26, 4-(3-(2quinolinylmethyloxy)phenoxy-methyl)benzonitrile] here?
A: 112.5 °C

Q: Which melting point does the source give for `c1cc(COc2cccc(-c3nnn[nH]3)c2)cc(OCc2ccc3ccccc3n2)c1` [Example 10, 5-[3-(3-(2-quinolinylmethyloxy)benzyloxy)phenyl]tetrazole] here?
A: 169 to 172 °C

Q: For `Cc1c(C)c2c(c(C)c1O)CCC(C)(COc1ccc(CC3SC(=O)NC3=O)cc1)O2` (stereo not shown) [Troglitazone ®, Troglitazone, reference compound], which EC50 ([1]; serum free medium) is on record?
A: > 3000 nM

Q: What about the Kb [2] of the same molecule?
A: > 10000 nM

Q: Which EC50 ([1]; in serum) does the source give for `c1ccc(Cc2nn[nH]n2)c(COc2ccc(OCc3ccc4ccccc4n3)cc2)c1` [Compound VI, 5-[2-(4-(2-quinolinylmethoxy)phenoxymethyl)benzyl]tetrazole] here?
A: 1000 to 3000 nM

Q: What about the EC50 ([1]; serum free medium) of the same molecule?
A: 100 to 300 nM

Q: What about the “activity in the differentiation assay” value ([1]; human preadipocytes) of the same molecule?
A: active

Q: What about the “potency in the differentiation assay relative to Troglitazone” value ([1]; human preadipocytes) of the same molecule?
A: better potency than Troglitazone®

Q: And the “binding to the LTD4 receptor (in words)” value [2]?
A: binds tightly

Q: What about the Kb ([2]; in serum) of the same molecule?
A: 88 nM

Q: And the Kb [2]?
A: 38 nM

Q: And the Kd [3]?
A: 3 nM

Q: What about the lowering plasma glucose ([4]; db/db mice, 50 or 150 mg/kg/day mixed with the food, Day 16, FIG. 3A) of the same molecule?
A: effective

Q: What about the “lowering plasma free fatty acids” value ([4]; db/db mice, 50 or 150 mg/kg/day mixed with the food, Day 16, FIG. 3B) of the same molecule?
A: effective

Q: What about the lowering plasma triglycerides ([4]; db/db mice, 50 or 150 mg/kg/day mixed with the food, Day 16, FIG. 3C) of the same molecule?
A: effective

Q: What about the lowering plasma insulin ([4]; db/db mice, 50 or 150 mg/kg/day mixed with the food, Day 16, FIG. 3D) of the same molecule?
A: effective

Q: And the “efficacy relative to Troglitazone” value ([4]; db/db mice, same doses, listed as compound of formula VI)?
A: significantly better efficacy; also recorded: more efficacious than Troglitazone®

Q: And the “potency relative to Troglitazone in lowering glucose” value ([4]; db/db mouse, in-feed administration, FIG. 4)?
A: at least three times the potency of Troglitazone®

Q: What about the “potency as PPAR-γ ligand receptor binder relative to Troglitazone” value [5] of the same molecule?
A: more potent PPAR-γ ligand receptor binder than Troglitazone®

Q: Which melting point does the source give for `c1cc(OCc2ccc(-c3nnn[nH]3)cc2)cc(OCc2ccc3ccccc3n2)c1` [Example 27, 5-(4-(3-(2quinolinylmethyloxy)phenoxy-methyl)phenyl)tetrazole] here?
A: 91 °C (dec.)

Q: For `c1cc(COc2ccc(OCc3ccc4ccccc4n3)cc2)cc(OCc2nnn[nH]2)c1` [Example 32, 5-(3-(4-(2-quinolinylmethyloxy)phenoxymethyl)phenoxymethyl)tetrazole], which melting point is on record?
A: 131 to 132 °C

Q: Which melting point does the source give for `c1ccc2nc(COc3ccc(COc4ccc(-c5nnn[nH]5)cc4)cc3)ccc2c1` [Example 11, 5-[4-(4-(2-quinolinylmethyloxy)benzyloxy)phenyl]tetrazole] here?
A: 210 to 213 °C

Q: Which melting point does the source give for `COC(=O)c1cccc(COc2cccc(OCc3ccc4ccccc4n3)c2)c1` [Example 19, methyl 3-(3-(2-quinolinylmethyloxy)phenoxymethyl)benzoate] here?
A: 93 to 94 °C
